Laboratory results published in PMC8229396, “Myeloperoxidase Inhibitory and Antioxidant Activities of (E)-2-Hydroxy-α-aminocinnamic Acids Obtained through Microwave-Assisted Synthesis” (Pharmaceuticals, 2021).

Experiments:
Type in all cases: biochemical
[1] = molecular target: T1, Myeloperoxidase (MPO) (Homo sapiens, UniProt P05164); test: MPO peroxidation assay (o-dianisidine/H2O2), dose-response
[2] = molecular target: T1, Myeloperoxidase (MPO); test: MPO peroxidation assay (o-dianisidine/H2O2), single concentration […]
[3] = molecular target: T1, Myeloperoxidase (MPO); test: MPO peroxidation assay ([…] at […]) and taurine-chloramine chlorination assay ([…] at […])

T1 sequence (P05164 165-273): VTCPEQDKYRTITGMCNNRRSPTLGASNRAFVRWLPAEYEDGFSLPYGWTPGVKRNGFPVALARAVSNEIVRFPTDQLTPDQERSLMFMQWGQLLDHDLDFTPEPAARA
T1 sequence (P05164 279-745): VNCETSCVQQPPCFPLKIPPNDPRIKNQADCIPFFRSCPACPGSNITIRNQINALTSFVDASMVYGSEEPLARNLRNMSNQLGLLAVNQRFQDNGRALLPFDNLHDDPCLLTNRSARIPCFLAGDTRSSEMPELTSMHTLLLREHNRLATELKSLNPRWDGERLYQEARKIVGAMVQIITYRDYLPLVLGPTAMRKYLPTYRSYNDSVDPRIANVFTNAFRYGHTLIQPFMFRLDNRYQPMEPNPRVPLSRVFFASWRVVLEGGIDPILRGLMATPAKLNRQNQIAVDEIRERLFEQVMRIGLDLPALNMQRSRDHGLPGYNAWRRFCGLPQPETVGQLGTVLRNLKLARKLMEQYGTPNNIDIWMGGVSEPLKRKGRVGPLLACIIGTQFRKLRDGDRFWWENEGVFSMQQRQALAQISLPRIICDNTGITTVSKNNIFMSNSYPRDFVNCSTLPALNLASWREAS

IC50 [1]	SMILES	also measured
43 ± 4 µM	CCOc1cccc(/C=C(/N)C(=O)O)c1O [2e, (E)-(3-Ethoxy-2-hydroxy)-α-aminocinnamic acid]	
30 ± 5 µM	N/C(=C/c1ccc(O)cc1O)C(=O)O [2f, (E)-(2,4-dihydroxy)-α-aminocinnamic acid]	
26 ± 2 µM	N/C(=C/c1cc(O)ccc1O)C(=O)O [2h, (E)-(2,5-dihydroxy)-α-aminocinnamic acid]	
	N/C(=C/c1cc(Br)ccc1O)C(=O)O [2b, (E)-(5-Bromo-2-hydroxy)-α-aminocinnamic acid]	inhibition at 100 µM [2]: 48.4 ± 4.1%
	N/C(=C/c1cc(Cl)ccc1O)C(=O)O [2c, (E)-(5-Chloro-2-hydroxy)-α-aminocinnamic acid]	inhibition at 100 µM [3]: 40.5 ± 4.4%
39 ± 2 µM	Nc1ccc(O)c(C(=O)O)c1 [5-ASA, 5-aminosalicylic acid, reference compound]	
45 ± 4 µM	N/C(=C/c1ccccc1O)C(=O)O [2a, (E)-(2-hydroxy)-α-aminocinnamic acid]	

SMILES	IC50 [1]	also measured
COc1ccc2c(c1)c(CC(=O)O)c(C)n2C(=O)c1ccc(Cl)cc1 [indomethacin, reference compound]	29 ± 2 µM	
